# In patent publication US5428038A, “Benzopyranones, a method for producing them and uses therefor” (Dr. Willmar Schwabe GmbH & Co., priority 1991, dated 1995):
# Tested on: NMDA-induced death
# Test: NMDA test (25 mg/kg i.v.), prevention of NMDA-induced death (neuroprotective efficacy)
# Assay type: in vivo, male NMRI mice
# Conditions: Mus musculus, po, 1 h; dose protecting 50% of animals against NMDA-induced death one hour after application; NMDA 25 mg/kg i.v.
# Method: In order to determine the neuroprotective and anticonvulsive activity of the compounds in accordance with the invention of the general formula I, two slightly different methods were employed as follows: […]
# 1. In order to determine the neuroprotective efficacy NMDA at a rate of 25 mg/kg/10 ml was administered intravenously to male NMRI mice with a body weight of 20 to 25 g. As a consequence of this application the animals suffer clonic and partly tonic convulsions, which lead to death. As a criterion for the efficacy of the investigated compounds prevention of death is used.
# All animals used in the investigations had free access to food and water prior to the experiments. The test and reference substances were all administered as a suspension in 0.2% agar or water, partly by the intermediary of solution promoters such as for instance PEG-400, perorally using an esophageal probe. Control animals received the same volumes of the solvent with optional solution promoters. One hour after the application of the substance NMDA was administered intravenously and the animals observed for the occurrence of convulsions.
# In table 1 the results of the tests (NMDA 25 mg i.v.) performed in accordance with method 1 are compiled with dosages of 5-100 mg of the compounds in accordance with the invention per kg of body weight as compared with known NMDA-antagonists. As a percentage efficacy the percentage of surviving animals is used.
# The determination of the ED50 values was performed in accordance with the method described in Lichtfield and Wilcoxon, J. Pharmacol. exp. Therapeut. 96, 99 (1949) in each case with 4 to 5 groups of 10 animals per dosage rate.
row,Structure (SMILES),ED50
1,"CCOc1cc2oc(=O)ccc2cc1OCCCN1CCN(c2ccccc2OC)CC1 [Example 7, 7-ethoxy-6-{3-[4-(2-methoxyphenyl)-1-piperazinyl]propoxy}-2H-1-benzopyran-2-one]",0.9 mg/kg
2,CCCc1cc(=O)oc2cc(OC)c(OCCCN3CCN(c4ccccc4)CC3)cc12 [Example 33],4.4 mg/kg
3,"COc1cc2oc(=O)c(-c3ccccc3)c(C)c2cc1OCCCN1CCN(c2ccccc2)CC1 [Example 41, 7-methoxy-4-methyl-3-phenyl-6-[3-(4-phenyl-1-piperazinyl)propoxy]-2H-1-benzopyran-2-one]",4.8 mg/kg
4,"COc1cc2oc(=O)c3c(c2cc1OCCN1CCN(c2ccccc2)CC1)CCC3 [Example 44, 2,3-dihydro-7-methoxy-8-[2-(4-phenyl-1-piperazinyl)ethoxy]cyclopenta[c][1]benzopyran-4(1H)-one]",4.8 mg/kg
5,"COc1cc2oc(=O)c3c(c2cc1OCCCN1CCN(c2ccccc2OC)CC1)CCC3 [Example 54, 2,3-dihydro-7-methoxy-8-{3-[4-(2-methoxyphenyl)-1-piperazinyl]propoxy}cyclopenta[c][1]benzopyran-4(1H)-one]",0.4 mg/kg

# Same assay, conditions: Mus musculus, po; 5 mg/kg p.o. 1 h before test; NMDA 25 mg/kg i.v.; read-out: Protective action (percentage of surviving animals)
row,Structure (SMILES),responders at 5 mg/kg
1,"CCOc1cc2oc(=O)ccc2cc1OCCCN1CCN(c2ccccc2)CC1 [Example 3, 7-ethoxy-6-[3-(4-phenyl-1-piperazinyl)propoxy]-2H-1-benzopyran-2-one]",62.5%
2,"CCOc1cc2oc(=O)ccc2cc1OCCCN1CCN(c2ccccc2OC)CC1 [Example 7, 7-ethoxy-6-{3-[4-(2-methoxyphenyl)-1-piperazinyl]propoxy}-2H-1-benzopyran-2-one]",100%
3,"COc1cc2oc(=O)cc(C(C)C)c2cc1OCCCN1CCN(c2ccccc2)CC1 [Example 35, 7-methoxy-4-(1-methylethyl)-6-[3-(4-phenyl-1-piperazinyl)propoxy]-2H-1-benzopyran-2-one]",75%
4,"COc1cc2oc(=O)c(-c3ccccc3)c(C)c2cc1OCCCN1CCN(c2ccccc2)CC1 [Example 41, 7-methoxy-4-methyl-3-phenyl-6-[3-(4-phenyl-1-piperazinyl)propoxy]-2H-1-benzopyran-2-one]",87.5%
5,"COc1cc2oc(=O)c3c(c2cc1OCCCCCN1CCN(c2ccccc2)CC1)CCC3 [Example 47, 2,3-dihydro-7-methoxy-8-[5-(4-phenyl-1-piperazinyl)pentyloxy]cyclopenta[c][1]benzopyran-4(1H)-one]",62.5%
6,"COc1cc2oc(=O)c3c(c2cc1OCCCCCN1CCC(c2ccccc2)CC1)CCC3 [Example 51, 2,3-dihydro-7-methoxy-8-[5-(4-phenyl-1-piperidinyl)pentyloxy]cyclopenta[c][1]benzopyran-4(1H)-one]",12.5%
7,"COc1cc2oc(=O)c3c(c2cc1OCCCN1CCN(c2ccccc2OC)CC1)CCC3 [Example 54, 2,3-dihydro-7-methoxy-8-{3-[4-(2-methoxyphenyl)-1-piperazinyl]propoxy}cyclopenta[c][1]benzopyran-4(1H)-one]",100%

# Same assay, conditions: Mus musculus, po; 25 mg/kg p.o. 1 h before test; NMDA 25 mg/kg i.v.; read-out: Protective action (percentage of surviving animals)
row,Structure (SMILES),responders at 25 mg/kg
1,"COc1cc2oc(=O)ccc2cc1OCCCN1CCN(c2ccccc2)CC1 [Example 1, 7-methoxy-6-[3-(4-phenyl-1-piperazinyl)propoxy]-2H-1-benzopyran-2-one]",100%
2,"COc1cc2ccc(=O)oc2cc1OCCCN1CCN(c2ccccc2)CC1 [Example 2, 6-methoxy-7-[3-(4-phenyl-1-piperazinyl)propoxy]-2H-1-benzopyran-2-one]",100%
3,"O=c1ccc2cc(OC3CCCC3)c(OCCCN3CCN(c4ccccc4)CC3)cc2o1 [Example 5, 6-(cyclopentyloxy)-7-[3-(4-phenyl-1-piperazinyl)propoxy]-2H-1-benzopyran-2-one]",87.5%
4,"COc1cc2oc(=O)ccc2cc1OCCCN1CCC(c2ccccc2)CC1 [Example 9, 7-methoxy-6-[3-(4-phenyl-1-piperidinyl)propoxy]-2H-1-benzopyran-2-one]",50%
5,"CCOc1cc2ccc(=O)oc2cc1OCCCN1CCC(c2ccccc2)CC1 [Example 11, 6-ethoxy-7-[3-(4-phenyl-1-piperidinyl)propoxy]-2H-1-benzopyran-2-one]",62.5%
6,"O=c1ccc2cc(OC3CCCC3)c(OCCCN3CCC(c4ccccc4)CC3)cc2o1 [Example 13, 6-(cyclopentyloxy)-7-[3-(4-phenyl-1-piperidinyl)propoxy]-2H-1-benzopyran-2-one]",100%
7,"COc1cc2oc(=O)c(C)c(C)c2cc1OCCCN1CCC(c2ccccc2)CC1 [Example 29, 7-methoxy-3,4-dimethyl-6-[3-(4-phenyl-1-piperidinyl)propoxy]-2H-1-benzopyran-2-one]",87.5%
8,COc1cc2oc(=O)cc(C(F)(F)F)c2cc1OCCCN1CCN(c2ccccc2)CC1 [Example 31],87.5%
9,"COc1cc2oc(=O)cc(C(F)(F)F)c2cc1OCCCN1CCC(c2ccccc2)CC1 [Example 32, 7-methoxy-6-[3-(4-phenyl-1-piperidinyl)propoxy]-4-(trifluoromethyl)-2H-1-benzopyran-2-one]",62.5%
10,CCCc1cc(=O)oc2cc(OC)c(OCCCN3CCN(c4ccccc4)CC3)cc12 [Example 33],100%
11,"CCCc1cc(=O)oc2cc(OC)c(OCCCN3CCC(c4ccccc4)CC3)cc12 [Example 34, 7-methoxy-6-[3-(4-phenyl-1-piperidinyl)propoxy]-4-propyl-2H-1-benzopyran-2-one]",75%
12,"COc1cc2oc(=O)cc(C(C)C)c2cc1OCCCN1CCC(c2ccccc2)CC1 [Example 36, 7-methoxy-4-(1-methylethyl)-6-[3-(4-phenyl-1-piperidinyl)propoxy]-2H-1-benzopyran-2-one]",50%
13,"CCCCc1c(C)c2cc(OCCCN3CCN(c4ccccc4)CC3)c(OC)cc2oc1=O [Example 37, 3-butyl-7-methoxy-4-methyl-6-[3-(4-phenyl-1-piperazinyl)propoxy]-2H-1-benzopyran-2-one]",100%
14,"CCCCc1c(C)c2cc(OCCCN3CCC(c4ccccc4)CC3)c(OC)cc2oc1=O [Example 38, 3-butyl-7-methoxy-4-methyl-6-[3-(4-phenyl-1-piperidinyl)propoxy]-2H-1-benzopyran-2-one]",87.5%
15,"COc1cc2oc(=O)c3c(c2cc1OCCN1CCN(c2ccccc2)CC1)CCC3 [Example 44, 2,3-dihydro-7-methoxy-8-[2-(4-phenyl-1-piperazinyl)ethoxy]cyclopenta[c][1]benzopyran-4(1H)-one]",87.5%
16,"COc1cc2oc(=O)c3c(c2cc1OCCCCN1CCC(c2ccccc2)CC1)CCC3 [Example 50, 2,3-dihydro-7-methoxy-8-[4-(4-phenyl-1-piperidinyl)butyloxy]cyclopenta[c][1]benzopyran-4(1H)-one]",87.5%
17,"COc1cc2oc(=O)c3c(c2cc1OCCCN1CCN(c2cccc(C)c2C)CC1)CCC3 [Example 53, 8-{3-[4-(2,3-dimethylphenyl)-1-piperazinyl]propoxy}-2,3-dihydro-7-methoxy-cyclopenta[c][1]benzopyran-4(1H)-one]",50%

# Same assay, conditions: Mus musculus, po; 50 mg/kg p.o. 1 h before test; NMDA 25 mg/kg i.v.; read-out: Protective action (percentage of surviving animals)
row,Structure (SMILES),responders at 50 mg/kg
1,"COc1cc2oc(=O)ccc2cc1OCC(O)CN1CCN(c2cccc(C(F)(F)F)c2)CC1 (racemic) [Example 20, (±)-6-{2-hydroxy-3-[4-(3-trifluoromethylphenyl)-1-piperazinyl]propoxy}-7-methoxy-2H-1-benzopyran-2-one]",87.5%
2,"COc1cc2ccc(=O)oc2cc1OCC(O)CN1CCN(c2cccc(C(F)(F)F)c2)CC1 (racemic) [Example 21, (±)-7-{2-hydroxy-3-[4-(3-trifluoromethylphenyl)-1-piperazinyl]propoxy}-6-methoxy-2H-1-benzopyran-2-one]",62.5%

# Same assay, conditions: Mus musculus, po; 100 mg/kg p.o. 1 h before test; NMDA 25 mg/kg i.v.; read-out: Protective action (percentage of surviving animals)
row,Structure (SMILES),responders at 100 mg/kg
1,"COc1cc2oc(=O)ccc2cc1OCC(O)CN1CCC(c2ccccc2)CC1 (racemic) [Example 22, (±)-6-[2-hydroxy-3-(4-phenyl-1-piperidinyl)-propoxy]-7-methoxy-2H-1-benzopyran-2-one]",37.5%
2,"COc1cc2oc(=O)ccc2cc1OCC(O)CN1CCC(O)(c2ccccc2)CC1 (racemic) [Example 24, (±)-6-[2-hydroxy-3-(4-hydroxy-4-phenyl-1-piperidinyl)propoxy]-7-methoxy-2H-1-benzopyran-2-one]",37.5%
3,"COc1cc2oc(=O)c(C)c(C)c2cc1OCCCN1CCN(Cc2ccc(Cl)cc2)CC1 [Example 30, 6-{3-[4-(4-chlorophenylmethyl)-1-piperazinyl]-propoxy}-7-methoxy-3,4-dimethyl-2H-1-benzopyran-2-one]",37.5%
